# Laboratory results: article PMC12449377, “Psychedelic-like effects induced by 2,5-dimethoxy-4-iodoamphetamine, lysergic acid diethylamide, and psilocybin in male and female C57BL/6J mice” (Psychopharmacology, 2025)
# pKd, pKi: −log10 of the molar value. Where two headings read alike, the source gives them in different places.
# Legend:
# [1] = target: T1, 5-HT2A (Mus musculus, UniProt P35363); experiment: Competition binding vs [3H]M100907 in mouse brain membranes
# T1 construct: tissue BioIVT; host or cells: whole C57BL/6 mouse brain minus cerebellum, male and female
# T1 sequence (P35363 whole entry): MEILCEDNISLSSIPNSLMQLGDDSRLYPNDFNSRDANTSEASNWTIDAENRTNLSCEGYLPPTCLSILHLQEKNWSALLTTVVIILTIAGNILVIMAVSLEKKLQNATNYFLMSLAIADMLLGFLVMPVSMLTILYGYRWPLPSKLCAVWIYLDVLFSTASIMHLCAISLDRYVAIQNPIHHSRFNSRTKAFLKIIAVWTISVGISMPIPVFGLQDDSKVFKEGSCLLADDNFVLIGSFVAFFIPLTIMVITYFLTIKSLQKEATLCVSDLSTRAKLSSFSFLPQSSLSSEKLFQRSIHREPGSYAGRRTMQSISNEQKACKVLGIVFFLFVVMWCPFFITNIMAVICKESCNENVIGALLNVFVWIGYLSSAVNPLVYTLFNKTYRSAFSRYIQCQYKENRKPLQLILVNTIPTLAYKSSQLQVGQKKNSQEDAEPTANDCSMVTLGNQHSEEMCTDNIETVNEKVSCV
# Procedure: (§1) Competition binding studies were conducted in mouse brain tissue as previously described (Glatfelter et al. [2022b]). Briefly, the experiments utilized membranes prepared from whole C57BL/6 mouse brain minus cerebellum (BioIVT, Westbury, NY, USA). […] We assessed the ability of test drugs to compete for [^3H]M100907 binding at 5-HT2A (1 nM) or [^3H]8-OH-DPAT binding at 5-HT1A (0.5 nM). Radioligands were purchased commercially (PerkinElmer, Boston, MA, USA). Nonspecific binding was determined using 10 µM ketanserin for 5-HT2A and serotonin for 5-HT1A. All data represent 3 experiments performed in triplicate.
# (§2) Concentration-response data were fit to a single site non-linear regression model. For the HTR studies, potencies were determined from the ascending limb of the dose-response curves using ED50 potency values from [agonist] vs. response (variable slope, four parameter) least squares fit non-linear regression analyses, whereas efficacy was defined by the top output parameter or Emax from the aforementioned analyses. […] Best-fit values for ED50 and Emax from non-linear regression analyses were compared by extra sum-of-squares F tests. Mean effects for each behavioral endpoint were compared using two-way ANOVA (dose x sex), followed by Sidak’s multiple comparisons post-hoc test. Mean effects for pooled mouse behavioral data were compared via Welch’s ANOVA with Dunnett’s T3 post-hoc test, comparing all doses to saline vehicle controls (0 mg/kg). Alpha was set to 0.05 for all analyses.
# [2] = target: T2, 5-HT1A (Mus musculus, UniProt Q64264); experiment: Competition binding vs [3H]8-OH-DPAT in mouse brain membranes
# T2 construct: tissue BioIVT; host or cells: whole C57BL/6 mouse brain minus cerebellum, male and female
# T2 sequence (Q64264 1-421): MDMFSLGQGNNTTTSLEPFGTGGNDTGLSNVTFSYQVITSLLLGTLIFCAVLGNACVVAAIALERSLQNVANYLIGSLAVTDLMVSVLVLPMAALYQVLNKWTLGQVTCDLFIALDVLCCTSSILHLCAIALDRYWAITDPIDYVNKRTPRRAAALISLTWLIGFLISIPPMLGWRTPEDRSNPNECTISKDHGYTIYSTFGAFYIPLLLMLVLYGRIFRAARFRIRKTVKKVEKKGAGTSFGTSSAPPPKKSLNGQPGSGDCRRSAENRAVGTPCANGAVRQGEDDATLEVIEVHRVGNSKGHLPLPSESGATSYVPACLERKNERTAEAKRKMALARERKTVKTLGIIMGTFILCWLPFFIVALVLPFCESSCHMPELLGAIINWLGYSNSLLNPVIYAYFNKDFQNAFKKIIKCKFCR
# Procedure: as §1, §2
# [3] = tested on: C57BL/6J mice; experiment: Head twitch response (HTR) in mice; type: in vivo, mouse; settings: for HTR (total events) Mean: 30 min; for ED50: Mus musculus, sc; for HTR ♀ Emax (95% CI) / HTR ♂ Emax (95% CI): top of regression fit
# Procedure: Each drug was tested using groups of 12 mice per sex (i.e., 24 total mice per drug). Experimental sessions were conducted once every 1–2 weeks for 2 months per drug. Experimental sessions were spaced apart by at least 1 week to minimize the potential for tolerance to drug effects (Canal and Morgan [2012]; Darmani et al. [1990a]; de la Fuente Revenga et al. [2022]). Experiments were conducted during the light phase (1300–1700 local time; lights on = 0700 in a 12/12 light/dark cycle).
# (§3) At 1–2 weeks prior to the beginning of experiments, mice were habituated to handling and receiving s.c. saline injections. On the day of an experiment, mice were acclimated to the testing room in their home cage for at least 30 min prior to the start of sessions. Prior to each session, mice were weighed, and resting body temperatures were recorded. Mice were then placed into experimental chambers for acclimation. Behavioral testing was carried out in TruScan mouse locomotor arenas equipped with photobeam arrays (Coulbourn Instruments, Holliston, MA, USA) that were modified with cylindrical inserts and transparent flooring to aid in semi-automated HTR detection as previously described (Glatfelter et al. [2022a]). After 5 min of acclimation, basal body temperature was recorded followed by s.c. injection of drug or vehicle, and mice were returned to test chambers for 30 min. Dose ranges for each drug were 0.03–10 mg/kg for DOI, 0.03–10 mg/kg for psilocybin, and 0.003–1 mg/kg for LSD. Mice were randomly assigned to specific doses at the beginning of the experiment and received different doses at each session.
# (§4) During each session, locomotor activity was quantified via photobeam tracking of distance traveled in cm. Overhead GoPro Hero Black 7 video recordings (120 fps, 960p resolution) were analyzed using a commercially available software package from Clever Sys Inc. (Reston, VA, USA) for the measurement of HTR activity. Mouse body temperature was also collected post-session to calculate temperature change values (basal - post session temperature reading).
# as §2
# [4] = tested on: C57BL/6J mice; experiment: Body temperature change in mice; type: in vivo, mouse; settings: post 30 min session
# Procedure: All mice were injected s.c. with temperature transponders (14 × 2 mm, model IPTT-300, Avidity Science, Waterford Wisconsin, USA) under brief isoflurane immobilization, and were given at least 1 week to recover (Glatfelter et al. [2022b]). Mice were single housed post-implant, and for the duration of the experiments, to protect their devices from being removed by cage mates. Temperature was measured noninvasively using a handheld reader which is sensitive to the transponder signals.
# as §3, §4, §2
# [5] = tested on: C57BL/6J mice; experiment: Locomotor activity (distance traveled) in mice; type: in vivo, mouse; settings: for Locomotor Activity (cm) Mean: 30 min
# Procedure: as §3, §4, §2
# [6] = tested on: C57BL/6J mice; settings: range over Table 1 and earlier studies; ref Glatfelter et al. [2022b], Sherwood et al. [2020]; cited from earlier work
# [7] = target: T2, 5-HT1A; settings: previously determined, used to calculate Ki; read-out: Kd of radioligand at 5-HT1A; cited from earlier work
structure (smiles),measurement,setting,value
CN(C)CCc1c[nH]c2cccc(O)c12 [Psilocin],pKi,"[1]; 5-HT2A binding affinity (Ki), males and females, male and female mouse brain membranes, summary statement",7.00 to 9.00
same,pKi,"[1]; [3H]M100907 Binding ♀ m5-HT2A Ki, female mouse brain membranes",6.95
same,pKi,"[1]; [3H]M100907 Binding ♂ m5-HT2A Ki, male mouse brain membranes",6.96
same,pKi,"[2]; 5-HT1A binding affinity (Ki), males and females, male and female mouse brain membranes, summary statement",7.00 to 9.00
same,pKi,"[2]; [3H]8-OH-DPAT Binding ♀ m5-HT1A Ki, female mouse brain membranes",7.00
same,pKi,"[2]; [3H]8-OH-DPAT Binding ♂ m5-HT1A Ki, male mouse brain membranes",6.95
"CN(C)CCc1c[nH]c2cccc(OP(=O)(O)O)c12 [Psilocybin, 4-phosphoryloxy-N,N-dimethyltryptamine]",HTR (total events) Mean,"[3]; 0.03 mg/kg s.c., female mice",8.0 total events
same,HTR (total events) Mean,"[3]; 0.03 mg/kg s.c., male mice",7.6 total events
same,HTR (total events) Mean,"[3]; 0.03 mg/kg s.c., pooled sexes",7.8 total events
same,HTR (total events) Mean,"[3]; 0.1 mg/kg s.c., female mice",11.8 total events
same,HTR (total events) Mean,"[3]; 0.1 mg/kg s.c., male mice",13.0 total events
same,HTR (total events) Mean,"[3]; 0.1 mg/kg s.c., pooled sexes",12.4 total events
same,HTR (total events) Mean,"[3]; 0.3 mg/kg s.c., female mice",27.3 total events
same,HTR (total events) Mean,"[3]; 0.3 mg/kg s.c., male mice",26.8 total events
same,HTR (total events) Mean,"[3]; 0.3 mg/kg s.c., pooled sexes",27.1 total events
same,HTR (total events) Mean,"[3]; 1 mg/kg s.c., female mice",30.2 total events
same,HTR (total events) Mean,"[3]; 1 mg/kg s.c., male mice",39.2 total events
same,HTR (total events) Mean,"[3]; 1 mg/kg s.c., pooled sexes",34.7 total events
same,HTR (total events) Mean,"[3]; 3 mg/kg s.c., female mice",47.2 total events
same,HTR (total events) Mean,"[3]; 3 mg/kg s.c., male mice",29.4 total events
same,HTR (total events) Mean,"[3]; 3 mg/kg s.c., pooled sexes",38.3 total events
same,HTR (total events) Mean,"[3]; 10 mg/kg s.c., female mice",21.8 total events
same,HTR (total events) Mean,"[3]; 10 mg/kg s.c., male mice",18.7 total events
same,HTR (total events) Mean,"[3]; 10 mg/kg s.c., pooled sexes",20.3 total events
same,ED50,"[3]; female mice, ascending limb of dose-response curve, read-out: HTR ♀ ED50 (95% CI)",0.31 mg/kg
same,ED50,"[3]; male mice, ascending limb of dose-response curve, read-out: HTR ♂ ED50 (95% CI)",0.17 mg/kg
same,ED50,"[3]; pooled male and female mice, read-out: HTR ♂+♀ ED50 (95% CI)",0.22 mg/kg
same,Duration of HTR effect in the session,"[3]; peak/active doses, 30 min session",trended to baseline levels by the end of the testing session
same,Time of peak effects on HTR post drug administration,"[3]; s.c., both sexes, 30 min session",5 to 10 min
same,HTR ♀ Emax (95% CI),"[3]; s.c., female mice",43 (35–54) HTR events
same,HTR ♀ Emax (95% CI),"[3]; s.c., female mice, listed as psilocybin",43 HTR events
same,HTR ♂ Emax (95% CI),"[3]; s.c., male mice",35 (30–40) HTR events
same,HTR ♂ Emax (95% CI),"[3]; s.c., male mice, listed as psilocybin",35 HTR events
same,HTR ♂+♀ Emax (95% CI),"[3]; s.c., pooled male and female mice",38 (33–47) HTR events
same,Body Temp Δ (°C) Mean,"[4]; 0.03 mg/kg s.c., female mice",0.2 °C
same,Body Temp Δ (°C) Mean,"[4]; 0.03 mg/kg s.c., male mice",-0.4 °C
same,Body Temp Δ (°C) Mean,"[4]; 0.03 mg/kg s.c., pooled sexes",-0.1 °C
same,Body Temp Δ (°C) Mean,"[4]; 0.1 mg/kg s.c., female mice",0.1 °C
same,Body Temp Δ (°C) Mean,"[4]; 0.1 mg/kg s.c., male mice",0.3 °C
same,Body Temp Δ (°C) Mean,"[4]; 0.1 mg/kg s.c., pooled sexes",0.2 °C
same,Body Temp Δ (°C) Mean,"[4]; 0.3 mg/kg s.c., female mice",0.04 °C
same,Body Temp Δ (°C) Mean,"[4]; 0.3 mg/kg s.c., male mice",0.1 °C
same,Body Temp Δ (°C) Mean,"[4]; 0.3 mg/kg s.c., pooled sexes",0.1 °C
same,Body Temp Δ (°C) Mean,"[4]; 1 mg/kg s.c., female mice",0.0 °C
same,Body Temp Δ (°C) Mean,"[4]; 1 mg/kg s.c., male mice",-1.0 °C
same,Body Temp Δ (°C) Mean,"[4]; 1 mg/kg s.c., pooled sexes",-0.4 °C
same,Body Temp Δ (°C) Mean,"[4]; 3 mg/kg s.c., female mice",-1.0 °C
same,Body Temp Δ (°C) Mean,"[4]; 3 mg/kg s.c., male mice",-1.3 °C
same,Body Temp Δ (°C) Mean,"[4]; 3 mg/kg s.c., pooled sexes",-1.2 °C
same,Body Temp Δ (°C) Mean,"[4]; 10 mg/kg s.c., female mice",-3.3 °C
same,Body Temp Δ (°C) Mean,"[4]; 10 mg/kg s.c., male mice",-4.1 °C
same,Body Temp Δ (°C) Mean,"[4]; 10 mg/kg s.c., pooled sexes",-3.7 °C
same,Locomotor Activity (cm) Mean,"[5]; 0.03 mg/kg s.c., female mice",2480.4 cm
same,Locomotor Activity (cm) Mean,"[5]; 0.03 mg/kg s.c., male mice",2063.8 cm
same,Locomotor Activity (cm) Mean,"[5]; 0.03 mg/kg s.c., pooled sexes",2272 cm
same,Locomotor Activity (cm) Mean,"[5]; 0.1 mg/kg s.c., female mice",2686.5 cm
same,Locomotor Activity (cm) Mean,"[5]; 0.1 mg/kg s.c., male mice",2877.2 cm
same,Locomotor Activity (cm) Mean,"[5]; 0.1 mg/kg s.c., pooled sexes",2782 cm
same,Locomotor Activity (cm) Mean,"[5]; 0.3 mg/kg s.c., female mice",3293.8 cm
same,Locomotor Activity (cm) Mean,"[5]; 0.3 mg/kg s.c., male mice",3064.5 cm
same,Locomotor Activity (cm) Mean,"[5]; 0.3 mg/kg s.c., pooled sexes",3179 cm
same,Locomotor Activity (cm) Mean,"[5]; 1 mg/kg s.c., female mice",2900.9 cm
same,Locomotor Activity (cm) Mean,"[5]; 1 mg/kg s.c., male mice",3532.9 cm
same,Locomotor Activity (cm) Mean,"[5]; 1 mg/kg s.c., pooled sexes",3188 cm
same,Locomotor Activity (cm) Mean,"[5]; 3 mg/kg s.c., female mice",2041.8 cm
same,Locomotor Activity (cm) Mean,"[5]; 3 mg/kg s.c., male mice",2018.9 cm
same,Locomotor Activity (cm) Mean,"[5]; 3 mg/kg s.c., pooled sexes",2029 cm
same,Locomotor activity effect,[5]; 10 mg/kg s.c.,decreased locomotor activity
same,Locomotor Activity (cm) Mean,"[5]; 10 mg/kg s.c., female mice",962.1 cm
same,Locomotor Activity (cm) Mean,"[5]; 10 mg/kg s.c., male mice",741.5 cm
same,Locomotor Activity (cm) Mean,"[5]; 10 mg/kg s.c., pooled sexes",851.8 cm
same,Locomotor activity effect,[5]; 0.3–1 mg/kg s.c.,mild increases in locomotor activity
same,ED50 doses inducing HTR in C57BL/6J mice,[6],0.22 to 0.40 mg/kg
CCCN(CCC)C1CCc2cccc(O)c2C1 (centres unmarked) [[^3H]8-OH-DPAT],pKd,[7],8.99
